Laboratory results reported in ChEMBL document CHEMBL3739378, “Nocarimidazoles A and B from a Marine-Derived Actinomycete of the Genus Nocardiopsis” (2015).
Converted amounts (≈) assume the structure as drawn. The source made the active and inactive calls. The rule behind the calls is not given here.

Columns and labels:
ACHN = assay: Cytotoxicity against human ACHN cells; assay type: functional, cell-based
A498 = assay: Cytotoxicity against human A498 cells; assay type: functional, cell-based
Bacillus subtilis = assay: Antibacterial activity against Bacillus subtilis ATCC 6633 after 24 hrs; assay type: functional; conditions: ATCC 6633, 24 h
[1] = target: Acetylcholinesterase (Homo sapiens) (UniProt P22303); assay: Inhibition of AChE (unknown origin) at 100 ug/ml for 15 mins by spectrophotometry
Sequence of Acetylcholinesterase (Homo sapiens) (P22303 whole entry): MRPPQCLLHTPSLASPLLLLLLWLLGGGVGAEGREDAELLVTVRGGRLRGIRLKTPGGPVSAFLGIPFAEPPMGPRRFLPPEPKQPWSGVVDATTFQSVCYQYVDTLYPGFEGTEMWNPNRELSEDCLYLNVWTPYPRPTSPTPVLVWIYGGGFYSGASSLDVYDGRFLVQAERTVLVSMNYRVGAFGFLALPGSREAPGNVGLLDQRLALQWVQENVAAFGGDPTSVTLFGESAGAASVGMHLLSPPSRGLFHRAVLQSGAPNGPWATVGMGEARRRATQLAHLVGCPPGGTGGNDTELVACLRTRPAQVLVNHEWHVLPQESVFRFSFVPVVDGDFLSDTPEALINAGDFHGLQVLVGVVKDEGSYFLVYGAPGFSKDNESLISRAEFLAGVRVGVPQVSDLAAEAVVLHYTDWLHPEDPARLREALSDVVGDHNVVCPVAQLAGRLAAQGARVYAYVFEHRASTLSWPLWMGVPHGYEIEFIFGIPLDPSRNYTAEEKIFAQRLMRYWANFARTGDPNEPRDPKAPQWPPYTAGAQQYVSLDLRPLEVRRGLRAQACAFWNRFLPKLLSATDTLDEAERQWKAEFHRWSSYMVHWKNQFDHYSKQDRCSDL

[2] = test system: Staphylococcus epidermidis; assay: Antibacterial activity against Staphylococcus epidermidis ATCC 12228 after 24 hrs; assay type: functional; conditions: ATCC 12228, 24 h

Compound | Activity (ACHN) | Activity (A498) | MIC (Bacillus subtilis) [µg/mL] | inhibition [1] | MIC [2] [µg/mL]
CCC(C)CCCCCCC(=O)c1nc[nH]c1N (centres undefined) | inactive | inactive | 64 (≈ 255 µM) | Active | 
CC(C)CCCCCCC(=O)c1nc[nH]c1N | inactive | inactive | 64 (≈ 270 µM) | Active | 64 (≈ 270 µM)
